Values of other authors, collected in patent US20170306503A1, “SYNTHETIC ACID COMPOSITIONS ALTERNATIVES TO CONVENTIONAL ACIDS IN THE OIL AND GAS INDUSTRY” (FLUID ENERGY GROUP LTD, priority 2014, published 2017).

Conditions: gas exposure, death in 2-3 minutes

## Cl [Hydrogen chloride gas, Hydrogen chloride]
  level at which death can occur: 1300-2000 PPM
